Measured values: BindingDB's records for doi:10.1111/cbdd.12141 (Konkuk University, 2013)

These compounds were tested against Xanthine dehydrogenase/oxidase (Bos taurus, UniProt P80457) (assay: XO inhibitory activity). Details: pH 7.6; 25 °C.
Experimental: The enzyme was pre-incubated for 5 min, with test compound, dissolved in DMSO (1% v/v). The reaction was initiated by the addition of xanthine.

Sequence of Xanthine dehydrogenase/oxidase (P80457 whole entry): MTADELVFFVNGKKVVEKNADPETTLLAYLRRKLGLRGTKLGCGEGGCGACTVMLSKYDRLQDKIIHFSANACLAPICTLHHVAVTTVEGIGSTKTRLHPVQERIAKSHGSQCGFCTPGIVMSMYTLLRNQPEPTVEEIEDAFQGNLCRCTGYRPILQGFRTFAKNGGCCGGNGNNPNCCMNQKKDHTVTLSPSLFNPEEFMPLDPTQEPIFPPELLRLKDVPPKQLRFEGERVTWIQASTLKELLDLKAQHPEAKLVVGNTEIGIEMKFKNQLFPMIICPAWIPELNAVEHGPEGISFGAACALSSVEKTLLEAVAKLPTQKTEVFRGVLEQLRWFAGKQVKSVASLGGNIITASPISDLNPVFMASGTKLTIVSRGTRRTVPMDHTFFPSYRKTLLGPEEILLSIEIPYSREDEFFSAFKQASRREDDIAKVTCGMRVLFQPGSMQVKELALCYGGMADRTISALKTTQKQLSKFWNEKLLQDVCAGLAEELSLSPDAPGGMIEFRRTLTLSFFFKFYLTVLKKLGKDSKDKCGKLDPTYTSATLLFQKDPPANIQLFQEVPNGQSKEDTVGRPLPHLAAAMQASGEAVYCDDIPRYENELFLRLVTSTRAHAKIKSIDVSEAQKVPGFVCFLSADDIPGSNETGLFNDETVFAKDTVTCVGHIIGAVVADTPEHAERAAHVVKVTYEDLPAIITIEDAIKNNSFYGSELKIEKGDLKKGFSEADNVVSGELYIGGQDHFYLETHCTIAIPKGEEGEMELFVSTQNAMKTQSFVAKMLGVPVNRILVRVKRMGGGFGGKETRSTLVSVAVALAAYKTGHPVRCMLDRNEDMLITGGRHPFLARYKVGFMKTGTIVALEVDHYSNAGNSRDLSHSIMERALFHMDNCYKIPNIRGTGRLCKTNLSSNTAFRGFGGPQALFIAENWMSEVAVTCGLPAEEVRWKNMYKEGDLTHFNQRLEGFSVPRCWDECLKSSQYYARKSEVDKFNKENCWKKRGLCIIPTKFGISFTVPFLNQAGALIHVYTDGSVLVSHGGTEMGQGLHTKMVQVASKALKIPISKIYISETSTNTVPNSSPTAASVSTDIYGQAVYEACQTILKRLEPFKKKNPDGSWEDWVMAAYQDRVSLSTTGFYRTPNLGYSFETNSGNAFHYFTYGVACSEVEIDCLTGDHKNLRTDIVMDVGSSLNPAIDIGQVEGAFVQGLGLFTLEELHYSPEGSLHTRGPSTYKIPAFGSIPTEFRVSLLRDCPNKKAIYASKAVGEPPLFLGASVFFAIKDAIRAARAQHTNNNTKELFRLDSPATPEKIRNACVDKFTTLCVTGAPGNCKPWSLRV

IC50 | Structure (SMILES)
5.3 µM | Oc1ccc2ccccc2c1-c1nc2ccccc2n1Cc1ccc2ccccc2c1O [1‐{1‐[(1‐hydroxynaphthalen‐2‐yl)methyl]‐1,3‐ benzodiazol‐2‐yl}naphthalen‐2‐ol (B11)]
5.1 µM | COc1cccc(Cn2c(-c3cccc(OC)c3)nc3ccccc32)c1 [2‐(3‐methoxyphenyl)‐1‐[(3‐methoxyphenyl)methyl]‐ 1,3‐benzodiazole (B13)]
4.3 µM | Cc1cccc(Cn2c(-c3cccc(C)c3)nc3ccccc32)c1 [2‐(3‐methylphenyl)‐1‐[(3‐methylphenyl)methyl]‐1,3‐ benzodiazole (B9)]
8.5 µM | COc1ccc(Cn2c(-c3ccc(OC)cc3)nc3ccccc32)cc1 [2‐(4‐methoxyphenyl)‐1‐[(4‐methoxyphenyl)methyl]‐ 1,3‐benzodiazole (B14)]
5.8 µM | Oc1cccc(Cn2c(-c3cccc(O)c3)nc3ccccc32)c1 [3‐{1‐[(3‐hydroxyphenyl)methyl]‐1,3‐benzodiazol‐2‐ yl}phenol (B7)]
9.7 µM | c1ccc(Cn2c(-c3ccccc3)nc3ccccc32)cc1 [1‐benzyl‐2‐phenyl‐1,3‐benzodiazole (B10)]
8.7 µM | Oc1ccccc1Cn1c(-c2ccccc2O)nc2ccccc21
7.5 µM | Cc1ccc(Cn2c(-c3ccc(C)cc3)nc3ccccc32)cc1 [2‐(4‐methylphenyl)‐1‐[(4‐methylphenyl)methyl]‐1,3‐ benzodiazole (B5)]
5.6 µM | Cc1ccccc1Cn1c(-c2ccccc2C)nc2ccccc21 [2‐(2‐methylphenyl)‐1‐[(2‐methylphenyl)methyl]‐1,3‐ benzodiazole (B4)]
6.3 µM | Clc1ccc(Cn2c(-c3ccc(Cl)cc3)nc3ccccc32)cc1 [2‐(4‐chlorophenyl)‐1‐[(4‐chlorophenyl)methyl]‐1,3‐ benzodiazole (B2)]
7.1 µM | c1cncc(Cn2c(-c3cccnc3)nc3ccccc32)c1 [2‐(pyridin‐3‐yl)‐1‐(pyridin‐3‐ylmethyl)‐1,3‐ benzodiazole (B12)]
8.2 µM | Clc1cccc(Cn2c(-c3cccc(Cl)c3)nc3ccccc32)c1 [2‐(3‐chlorophenyl)‐1‐[(3‐chlorophenyl)methyl]‐1,3‐ benzodiazole (B8)]
4.5 µM | Oc1ccc(Cn2c(-c3ccc(O)cc3)nc3ccccc32)cc1 [4‐{1‐[(4‐hydroxyphenyl)methyl]‐1,3‐benzodiazol‐2‐ yl}phenol (B6)]
4.4 µM | Clc1ccccc1Cn1c(-c2ccccc2Cl)nc2ccccc21 [2‐(2‐chlorophenyl)‐1‐[(2‐chlorophenyl)methyl]‐1,3‐ benzodiazole (B3)]
